Measured values taken from the supplement of paper PMC10307832.

Key:
Experiment in all cases: relative viability (nuclei count vs DMSO), 5 days (fraction); higher = more cells survive
RO-3306 + Palbociclib = compound: C1=CC2=C(C=CC(=C2)C=C3C(=O)NC(=NCC4=CC=CS4)S3)N=C1 [RO-3306] + CC(=O)c1c(C)c2cnc(Nc3ccc(N4CCNCC4)cn3)nc2n(C2CCCC2)c1=O [Palbociclib] (partner 0.5 µM)
In short: (§1)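 Cells from lung cancer lines were seeded into 1536-well plates and, one day later, dosed by pin tool. Treatments were either a single drug or a fixed dose of an anchor drug with five library-drug doses (not always all listed) in √10 steps. After 5 days, nuclei were stained in a one-step fixation (final 0.05% Triton X-100, 1% formaldehyde, 1 ug/ml Hoechst) and counted on 4× images, and relative viability is the treated-to-vehicle nuclei ratio, as the median of duplicate plates.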

RO-3306 + Alpelisib = compound: C1=CC2=C(C=CC(=C2)C=C3C(=O)NC(=NCC4=CC=CS4)S3)N=C1 [RO-3306] + Cc1nc(NC(=O)N2CCC[C@H]2C(N)=O)sc1-c1ccnc(C(C)(C)C(F)(F)F)c1 [Alpelisib] (partner 2 µM)
In short: as §1

[1] = compound: O=S(=O)(c1ccccc1)N(CC(F)(F)F)c1ccc(C(O)(C(F)(F)F)C(F)(F)F)cc1 + CC(=O)c1c(C)c2cnc(Nc3ccc(N4CCNCC4)cn3)nc2n(C2CCCC2)c1=O [Palbociclib] (partner 0.5 µM)
In short: as §1

[2] = compound: O=S(=O)(c1ccccc1)N(CC(F)(F)F)c1ccc(C(O)(C(F)(F)F)C(F)(F)F)cc1 + Cc1nc(NC(=O)N2CCC[C@H]2C(N)=O)sc1-c1ccnc(C(C)(C)C(F)(F)F)c1 [Alpelisib] (partner 2 µM)
In short: as §1

Cell Line | relative viability (RO-3306 + Palbociclib; first compound 0.01 µM) | relative viability (RO-3306 + Palbociclib; first compound 0.03162 µM) | relative viability (RO-3306 + Palbociclib; first compound 0.1 µM) | relative viability (RO-3306 + Palbociclib; first compound 0.3162 µM) | relative viability (RO-3306 + Palbociclib; first compound 1 µM) | relative viability (RO-3306 + Alpelisib; first compound 0.01 µM) | relative viability (RO-3306 + Alpelisib; first compound 0.03162 µM) | relative viability (RO-3306 + Alpelisib; first compound 0.1 µM) | relative viability (RO-3306 + Alpelisib; first compound 0.3162 µM) | relative viability (RO-3306 + Alpelisib; first compound 1 µM) | relative viability ([1]; first compound 0.8 µM) | relative viability ([1]; first compound 2.53 µM) | relative viability ([1]; first compound 8 µM) | relative viability ([2]; first compound 0.8 µM) | relative viability ([2]; first compound 2.53 µM) | relative viability ([2]; first compound 8 µM)
SK-MES-1 | 0.355 | 0.305 | 0.352 | 0.289 | 0.272 | 0.9 | 0.553 | 0.831 | 0.983 | 0.922 | 0.351 | 0.354 | 0.277 | 0.827 | 0.789 | 0.848
H3255 | 0.299 | 0.373 | 0.294 | 0.305 | 0.321 | 0.576 | 0.59 | 0.632 | 0.628 | 0.6 | 0.319 | 0.313 | 0.28 | 0.783 | 0.632 | 0.569
NCI-H2087 | 0.226 | 0.233 | 0.171 | 0.238 | 0.197 | 1.12 | 1.2 | 1.08 | 0.91 | 1.08 | 0.253 | 0.183 | 0.261 | 1.16 | 1.11 | 0.972
NCI-H1666 | 0.734 | 0.631 | 0.603 | 0.616 | 0.609 | 1.02 | 0.743 | 0.891 | 0.973 | 0.802 | 0.645 | 0.657 | 0.601 | 0.776 | 0.868 | 0.892
SK-LU-1 | 0.365 | 0.366 | 0.382 | 0.336 | 0.355 | 1.03 | 1.07 | 0.951 | 1.02 | 0.973 | 0.358 | 0.423 | 0.376 | 1.16 | 1.23 | 0.903
NCI-H727 | 0.623 | 0.613 | 0.552 | 0.557 | 0.604 | 0.622 | 0.531 | 0.517 | 0.716 | 0.786 | 0.621 | 0.623 | 0.618 | 0.549 | 0.465 | 0.489
NCI-H1755 | 0.421 | 0.474 | 0.48 | 0.417 | 0.45 | 1.02 | 0.772 | 0.958 | 0.904 | 0.859 | 0.471 | 0.46 | 0.464 | 0.981 | 0.91 | 0.83
NCI-H1650 | 0.423 | 0.246 | 0.285 | 0.321 | 0.274 |  |  |  |  |  | 0.308 | 0.276 | 0.367 |  |  | 
HARA | 0.207 |  | 0.265 | 0.24 | 0.311 | 1.05 | 0.754 | 0.953 | 0.973 | 0.795 | 0.246 | 0.244 | 0.27 | 0.647 | 0.721 | 0.539
NCI-H1944 | 0.336 | 0.339 | 0.34 | 0.333 | 0.333 | 0.789 | 0.739 | 0.816 | 0.934 | 0.829 | 0.342 | 0.303 | 0.332 | 0.802 | 0.837 | 0.738
RERF-LC-KJ | 1.27 | 0.993 | 1.16 | 1.1 | 1.08 | 1.01 | 0.708 | 0.706 | 0.836 | 0.768 | 1.1 | 0.909 | 0.905 | 0.857 | 0.701 | 0.858
NCI-H647 | 0.486 | 0.325 | 0.355 | 0.474 | 0.446 | 1.76 | 0.954 | 1.09 | 1.16 | 1.28 | 0.329 | 0.305 | 0.408 | 1.25 | 1.01 | 1.35
NCI-H1648 | 0.277 |  | 0.284 | 0.246 | 0.224 |  |  |  |  |  | 0.258 | 0.274 | 0.29 |  |  | 
EBC-1 |  |  |  |  |  | 0.895 | 0.727 | 1.04 | 0.965 | 0.904 |  |  |  | 0.572 | 0.474 | 0.547
NCI-H522 | 1.2 | 0.965 | 1.01 | 1.02 | 1.04 |  |  |  |  |  | 1.01 | 1.14 | 0.913 |  |  | 
Calu-6 |  |  |  |  |  | 1.21 | 0.91 | 1.04 | 0.931 | 0.982 |  |  |  | 0.82 | 0.77 | 0.885
NCI-H1299 |  |  |  |  |  | 1.07 | 0.808 | 1.05 | 1.07 | 1.12 |  |  |  | 1.09 | 1.08 | 1.03
NCI-H596 |  |  |  |  |  | 0.443 | 0.48 | 0.49 | 0.511 | 0.432 |  |  |  | 0.423 | 0.419 | 0.421
SW 900 | 0.61 | 0.505 | 0.539 | 0.542 | 0.51 |  |  |  |  |  | 0.409 | 0.421 | 0.5 |  |  | 
A549 |  |  |  |  |  | 0.744 |  | 0.72 | 0.756 | 0.715 |  |  |  | 0.643 | 0.779 | 0.677
ChaGo-K-1 | 1.04 | 0.854 | 0.911 | 0.871 | 0.578 |  |  |  |  |  | 1 | 0.895 | 0.877 |  |  | 
NCI-H1703 |  |  |  |  |  | 0.467 | 0.324 | 0.342 | 0.262 | 0.307 |  |  |  | 0.343 | 0.316 | 0.382
NCI-H1563 |  |  |  |  |  | 0.992 | 0.906 | 0.823 | 1 | 0.898 |  |  |  | 0.923 | 0.833 | 0.788
IA-LM |  |  |  |  |  | 0.895 | 0.56 | 0.725 | 0.708 | 0.948 |  |  |  | 0.715 | 0.5 | 0.655
NCI-H2342 | 0.515 | 0.512 | 0.494 | 0.498 | 0.527 |  |  |  |  |  | 0.592 | 0.545 | 0.502 |  |  | 
